Data published in US20170071944A1, “MODULATORS OF TOLL-LIKE RECEPTORS FOR THE TREATMENT OF HIV” (Gilead Sciences, Inc., priority 2015, published 2017).

Tested on: PBMC cultures from HIV-1 infected subjects on cART
Test: Induced cytokines and chemokines in PBMC cultures from HIV-1 infected subjects on cART (multiplexed Luminex)
Assay type: cell-based, human
Settings: for GRO-α / GRO-α Fold vs DMSO / Granzyme B / Granzyme B Fold vs DMSO / I-TAC / I-TAC Fold vs DMSO / IFN-α / IFN-α Fold vs DMSO / IFN-γ / IFN-γ Fold vs DMSO / IL-6 pg/ml / IL-8 pg/ml / IL-10 pg/ml / IL-18 pg/ml / IL-23 pg/ml / IL-1RA / IL-1RA Fold vs DMSO / IL-1β / IL-1β Fold vs DMSO / IL-6 Fold vs DMSO / IL-8 Fold vs DMSO / IL-10 Fold vs DMSO / IL-18 Fold vs DMSO / IL-23 Fold vs DMSO / IP-10 pg/ml / IP-10 Fold vs DMSO / MCP-1 pg/ml / MCP-1 Fold vs DMSO / MIP-1α / MIP-1α Fold vs DMSO / MIP-1β / MIP-1β Fold vs DMSO / MIP-3α / MIP-3α Fold vs DMSO / MMP-1 pg/ml / MMP-1 Fold vs DMSO / TNF-α / TNF-α Fold vs DMSO / IL-12p70 pg/ml / IL-12p70 Fold vs DMSO: day 2, geometric mean, 4 subjects
Experimental: To further characterize the immune modulatory effect of TLR8 agonists in cells from HIV-infected subjects, the production of secreted cytokines and chemokines was measured in PBMCs from 4 HIV-infected subjects on suppressive cART (anonymized participant IDs 180-183). PBMCs were purified, as described in Example 121, and immediately added to tissue culture plates pre-equilibrated at 37° C. with media containing DMSO (vehicle control) or with the TLR8 modulating compound Example 15 at concentrations ranging from 1.0 nM to 10.0 μM. On day 2 after treatment, cell-free culture supernatants were collected and frozen at −80 C for subsequent analysis. Frozen supernatants were thawed at room temperature, and the indicated cytokines and chemokines were quantified with a custom multiplexed xMAP Luminex® assay following the manufacturer's instructions (Thermo Fisher Scientific Inc., Grand Island, N.Y., custom-designed kit).
Data are expressed as geometric mean cytokine values (pg/ml) obtained from 4 subjects' PBMCs. Geometric mean fold-activation from three independent incubation samples for each condition. Fold (fold-activation) is calculated as a ratio of the concentration of cytokine detected in cell culture supernatants from agonist treated samples relative to DMSO treated samples

## CCCC[C@H](CO)Nc1nc(N)nc2cccnc12 [Example 15]
Ex 15 1 nM
  GRO-α: 31 pg/mL
  GRO-α Fold vs DMSO: 1 fold
  Granzyme B: 80 pg/mL
  Granzyme B Fold vs DMSO: <1 fold
  I-TAC: 82 pg/mL
  I-TAC Fold vs DMSO: 2 fold
  IFN-α: 4 pg/mL
  IFN-α Fold vs DMSO: 2 fold
  IFN-γ: 50 pg/mL
  IFN-γ Fold vs DMSO: 2 fold
  IL-6 pg/ml: 61 pg/mL
  IL-8 pg/ml: 624 pg/mL
  IL-10 pg/ml: 25 pg/mL
  IL-18 pg/ml: 23 pg/mL
  IL-23 pg/ml: 131 pg/mL
  IL-1RA: 11610 pg/mL
  IL-1RA Fold vs DMSO: 3 fold
  IL-1β: 5 pg/mL
  IL-1β Fold vs DMSO: 2 fold
  IL-6 Fold vs DMSO: 1 fold
  IL-8 Fold vs DMSO: 2 fold
  IL-10 Fold vs DMSO: 1 fold
  IL-18 Fold vs DMSO: 1 fold
  IL-23 Fold vs DMSO: 2 fold
  IP-10 pg/ml: 696 pg/mL
  IP-10 Fold vs DMSO: 3 fold
  MCP-1 pg/ml: 180 pg/mL
  MCP-1 Fold vs DMSO: 3 fold
  MIP-1α: 251 pg/mL
  MIP-1α Fold vs DMSO: 5 fold
  MIP-1β: 2189 pg/mL
  MIP-1β Fold vs DMSO: 2 fold
  MIP-3α: 23 pg/mL
  MIP-3α Fold vs DMSO: 1 fold
  MMP-1 pg/ml: 119 pg/mL
  MMP-1 Fold vs DMSO: 1 fold
Ex 15 10 nM
  GRO-α: 29 pg/mL
  GRO-α Fold vs DMSO: 1 fold
  Granzyme B: 74 pg/mL
  Granzyme B Fold vs DMSO: <1 fold
  I-TAC: 70 pg/mL
  I-TAC Fold vs DMSO: 1 fold
  IFN-α: 4 pg/mL
  IFN-α Fold vs DMSO: 2 fold
  IFN-γ: 48 pg/mL
  IFN-γ Fold vs DMSO: 2 fold
  IL-6 pg/ml: 61 pg/mL
  IL-8 pg/ml: 333 pg/mL
  IL-10 pg/ml: 21 pg/mL
  IL-18 pg/ml: 26 pg/mL
  IL-23 pg/ml: 86 pg/mL
  IL-1RA: 5309 pg/mL
  IL-1RA Fold vs DMSO: 1 fold
  IL-1β: 2 pg/mL
  IL-1β Fold vs DMSO: 1 fold
  IL-6 Fold vs DMSO: 1 fold
  IL-8 Fold vs DMSO: 1 fold
  IL-10 Fold vs DMSO: 1 fold
  IL-18 Fold vs DMSO: 2 fold
  IL-23 Fold vs DMSO: 1 fold
  IP-10 pg/ml: 259 pg/mL
  IP-10 Fold vs DMSO: 1 fold
  MCP-1 pg/ml: 91 pg/mL
  MCP-1 Fold vs DMSO: 1 fold
  MIP-1α: 70 pg/mL
  MIP-1α Fold vs DMSO: 1 fold
  MIP-1β: 1302 pg/mL
  MIP-1β Fold vs DMSO: 1 fold
  MIP-3α: 23 pg/mL
  MIP-3α Fold vs DMSO: 1 fold
  MMP-1 pg/ml: 104 pg/mL
  MMP-1 Fold vs DMSO: 1 fold
  TNF-α: 35 pg/mL
  TNF-α Fold vs DMSO: 2 fold
Ex 15 100 nM
  GRO-α: 469 pg/mL
  GRO-α Fold vs DMSO: 20 fold
  Granzyme B: 79 pg/mL
  Granzyme B Fold vs DMSO: <1 fold
  I-TAC: 32 pg/mL
  I-TAC Fold vs DMSO: 1 fold
  IFN-α: 3 pg/mL
  IFN-α Fold vs DMSO: 1 fold
  IFN-γ: 49 pg/mL
  IFN-γ Fold vs DMSO: 2 fold
  IL-6 pg/ml: 4424 pg/mL
  IL-8 pg/ml: 2561 pg/mL
  IL-10 pg/ml: 2459 pg/mL
  IL-18 pg/ml: 20 pg/mL
  IL-23 pg/ml: 130 pg/mL
  IL-1RA: 41213 pg/mL
  IL-1RA Fold vs DMSO: 12 fold
  IL-1β: 135 pg/mL
  IL-1β Fold vs DMSO: 45 fold
  IL-6 Fold vs DMSO: 57 fold
  IL-8 Fold vs DMSO: 8 fold
  IL-10 Fold vs DMSO: 145 fold
  IL-12p70 pg/ml: 6 pg/mL
  IL-12p70 Fold vs DMSO: 2 fold
  IL-18 Fold vs DMSO: 1 fold
  IL-23 Fold vs DMSO: 2 fold
  IP-10 pg/ml: 226 pg/mL
  IP-10 Fold vs DMSO: 1 fold
  MCP-1 pg/ml: 2162 pg/mL
  MCP-1 Fold vs DMSO: 33 fold
  MIP-1α: 172 pg/mL
  MIP-1α Fold vs DMSO: 3 fold
  MIP-1β: 1302 pg/mL
  MIP-1β Fold vs DMSO: 1 fold
  MIP-3α: 28 pg/mL
  MIP-3α Fold vs DMSO: 1 fold
  MMP-1 pg/ml: 198 pg/mL
  MMP-1 Fold vs DMSO: 2 fold
  TNF-α: 132 pg/mL
  TNF-α Fold vs DMSO: 6 fold
Ex 15 1000 nM
  GRO-α: 413 pg/mL
  GRO-α Fold vs DMSO: 18 fold
  Granzyme B: 878 pg/mL
  Granzyme B Fold vs DMSO: 4 fold
  I-TAC: 105 pg/mL
  I-TAC Fold vs DMSO: 2 fold
  IFN-α: 6 pg/mL
  IFN-α Fold vs DMSO: 3 fold
  IFN-γ: 5693 pg/mL
  IFN-γ Fold vs DMSO: 228 fold
  IL-6 pg/ml: 22600 pg/mL
  IL-8 pg/ml: 1565 pg/mL
  IL-10 pg/ml: 3719 pg/mL
  IL-18 pg/ml: 191 pg/mL
  IL-23 pg/ml: 465 pg/mL
  IL-1RA: 164731 pg/mL
  IL-1RA Fold vs DMSO: 46 fold
  IL-1β: 4735 pg/mL
  IL-1β Fold vs DMSO: 1578 fold
  IL-6 Fold vs DMSO: 290 fold
  IL-8 Fold vs DMSO: 5 fold
  IL-10 Fold vs DMSO: 219 fold
  IL-12p70 pg/ml: 524 pg/mL
  IL-12p70 Fold vs DMSO: 175 fold
  IL-18 Fold vs DMSO: 11 fold
  IL-23 Fold vs DMSO: 8 fold
  IP-10 pg/ml: 741 pg/mL
  IP-10 Fold vs DMSO: 3 fold
  MCP-1 pg/ml: 1464 pg/mL
  MCP-1 Fold vs DMSO: 22 fold
  MIP-1α: 18689 pg/mL
  MIP-1α Fold vs DMSO: 374 fold
  MIP-1β: 415739 pg/mL
  MIP-1β Fold vs DMSO: 340 fold
  MIP-3α: 1085 pg/mL
  MIP-3α Fold vs DMSO: 42 fold
  MMP-1 pg/ml: 317 pg/mL
  MMP-1 Fold vs DMSO: 3 fold
  TNF-α: 34880 pg/mL
  TNF-α Fold vs DMSO: 1661 fold
Ex 15 3000 nM
  GRO-α: 418 pg/mL
  GRO-α Fold vs DMSO: 18 fold
  Granzyme B: 857 pg/mL
  Granzyme B Fold vs DMSO: 4 fold
  I-TAC: 98 pg/mL
  I-TAC Fold vs DMSO: 2 fold
  IFN-α: 6 pg/mL
  IFN-α Fold vs DMSO: 3 fold
  IFN-γ: 3586 pg/mL
  IFN-γ Fold vs DMSO: 143 fold
  IL-6 pg/ml: 15198 pg/mL
  IL-8 pg/ml: 1139 pg/mL
  IL-10 pg/ml: 4747 pg/mL
  IL-18 pg/ml: 308 pg/mL
  IL-23 pg/ml: 1163 pg/mL
  IL-1RA: 88340 pg/mL
  IL-1RA Fold vs DMSO: 25 fold
  IL-1β: 5302 pg/mL
  IL-1β Fold vs DMSO: 1767 fold
  IL-6 Fold vs DMSO: 195 fold
  IL-8 Fold vs DMSO: 4 fold
  IL-10 Fold vs DMSO: 279 fold
  IL-12p70 pg/ml: 381 pg/mL
  IL-12p70 Fold vs DMSO: 127 fold
  IL-18 Fold vs DMSO: 18 fold
  IL-23 Fold vs DMSO: 19 fold
  IP-10 pg/ml: 711 pg/mL
  IP-10 Fold vs DMSO: 3 fold
  MCP-1 pg/ml: 1646 pg/mL
  MCP-1 Fold vs DMSO: 25 fold
  MIP-1α: 21047 pg/mL
  MIP-1α Fold vs DMSO: 421 fold
  MIP-1β: 293183 pg/mL
  MIP-1β Fold vs DMSO: 240 fold
  MIP-3α: 2141 pg/mL
  MIP-3α Fold vs DMSO: 82 fold
  MMP-1 pg/ml: 311 pg/mL
  MMP-1 Fold vs DMSO: 3 fold
  TNF-α: 64062 pg/mL
  TNF-α Fold vs DMSO: 3051 fold
Ex 15 10000 nM
  GRO-α: 433 pg/mL
  GRO-α Fold vs DMSO: 19 fold
  Granzyme B: 644 pg/mL
  Granzyme B Fold vs DMSO: 3 fold
  I-TAC: 69 pg/mL
  I-TAC Fold vs DMSO: 1 fold
  IFN-α: 4 pg/mL
  IFN-α Fold vs DMSO: 2 fold
  IFN-γ: 1478 pg/mL
  IFN-γ Fold vs DMSO: 59 fold
  IL-6 pg/ml: 18836 pg/mL
  IL-8 pg/ml: 1118 pg/mL
  IL-10 pg/ml: 5167 pg/mL
  IL-18 pg/ml: 218 pg/mL
  IL-23 pg/ml: 965 pg/mL
  IL-1RA: 90289 pg/mL
  IL-1RA Fold vs DMSO: 25 fold
  IL-1β: 6611 pg/mL
  IL-1β Fold vs DMSO: 2204 fold
  IL-6 Fold vs DMSO: 241 fold
  IL-8 Fold vs DMSO: 4 fold
  IL-10 Fold vs DMSO: 304 fold
  IL-12p70 pg/ml: 113 pg/mL
  IL-12p70 Fold vs DMSO: 38 fold
  IL-18 Fold vs DMSO: 13 fold
  IL-23 Fold vs DMSO: 16 fold
  IP-10 pg/ml: 587 pg/mL
  IP-10 Fold vs DMSO: 2 fold
  MCP-1 pg/ml: 1796 pg/mL
  MCP-1 Fold vs DMSO: 27 fold
  MIP-1α: 24365 pg/mL
  MIP-1α Fold vs DMSO: 487 fold
  MIP-1β: 239694 pg/mL
  MIP-1β Fold vs DMSO: 196 fold
  MIP-3α: 1680 pg/mL
  MIP-3α Fold vs DMSO: 65 fold
  MMP-1 pg/ml: 740 pg/mL
  MMP-1 Fold vs DMSO: 8 fold
  TNF-α: 23017 pg/mL
  TNF-α Fold vs DMSO: 1096 fold
Example 15, 1.0 nM to 10.0 μM
  Peak fold-activation relative to DMSO, IL-12p70: 518 fold
  Peak fold-activation relative to DMSO, IL-18: 18 fold
  Peak fold-activation relative to DMSO, TNF-α: 3051 fold
Example 15, 1.0 nM to 10.0 μM, did not induce at levels >2-fold
  Induction of IFN-ω, IL-2, IL-4, IL-5, IL-7, IL-15, IL-17A, IL-21, IL-27, or IL-29 compared to DMSO control: ≤ 2 fold
